{
  "source": "patent US20110244060A1",
  "about": "“CARDIOPROTECTIVE EFFECTS OF NUTRACEUTICALS ISOLATED FROM NIGELLA SATIVA SEEDS” (UNIVERSITI PUTRA MALAYSIA, priority 2008, published 2011)",
  "key": {"LDLR mRNA [1]": {"test_system": "LDLR mRNA", "assay": "LDLR mRNA expression in liver of experimental rats, quantitative real-time PCR", "format": "in vivo", "conditions": "rat liver, compared with untreated rats"}, "Apo B100 mRNA [2]": {"test_system": "Apo B100 mRNA", "assay": "Apo B100 mRNA expression in rat liver, real-time PCR", "conditions": "rat liver (in vivo), compared to the control"}, "LDLR mRNA [3]": {"test_system": "LDLR mRNA", "assay": "LDLR mRNA expression in HepG2 cells, quantitative real-time PCR", "format": "cell-based, human", "conditions": "TQ 2 μg/ml, compared to control cells"}, "[4]": {"test_system": "Sprague-Dawley rats fed with diets supplemented with 1% cholesterol", "assay": "Hypocholesterolemic effect of TQRF and TQ in rats fed 1% cholesterol diet (plasma TC, LDLC)", "format": "in vivo, rat", "conditions": "for TC levels in experimental rats: 1% cholesterol diet"}, "[5]": {"assay": "Toxicity parameters (ALT, GGT, urea, creatinine) of plasma from experimental rats", "conditions": "rat, in vivo", "procedure": "In the present invention, the in vivo (rabbit study) antioxidant activity of NSP and NSO were measured using Selectra E manufacture Vital scientific machine (UK) and with commercial kits (Randox, Crumlin, Co. Antrim, UK). The present invention provides a method of the antioxidant activity of TQRF and TQ on .OH scavenging activity using ESR in experimental rats. The present invention provided clear understanding of the molecular mechanism by which TQRF and TQ exert their lowering cholesterol property. The regulatory effect of TQRF and TQ on genes involved in cholesterol metabolism such as LDLR, HMG-COAR, Apo A-1, Apo B100 and Apo E were investigated in vitro using HepG2 cells and in vivo using Sprague-Dawley rats. The present invention also provides evidence on the safety of selective doses of TQRF, TQ, NSO and NSP by measuring the toxicity parameters including Alanine aminotransferase (ALT), Gamma-glutamyltranspeptidase (GGT), urea and creatinine of plasma collected from experimental rats and rabbits.\nToxicity parameter including, ALT of plasma samples collected from experimental rats at baseline, middle of the treatment and the end f the treatment s were measured using analytical kit by kinetic UV assay using Roche Selectra E machine."}, "Apo E mRNA [6]": {"test_system": "Apo E mRNA", "assay": "Apo E mRNA expression in rat liver, real-time PCR", "conditions": "rat liver (in vivo), compared to the control"}, "HMG-COAR mRNA [7]": {"test_system": "HMG-COAR mRNA", "assay": "HMG-COAR mRNA expression in rat liver, real-time PCR", "conditions": "rat liver (in vivo), compared to the control", "procedure": "At the end of the experiment, all the rats were dissected and liver tissues for RNA isolation were removed, snap frozen with liquid nitrogen within approximately 2 min of death, and stored at −80° C. for gene expression study. Total RNA was isolated from HepG2 cells and rats liver tissues using RiboPure RNA Isolation Kit according to the manufacturer's instructions. […] Real-time quantitative PCR was performed using the Quantict Probe Real time PCR master mix according to the manufacturer's instructions. TaqMan Primers and probes specific for LDLR and HMG-COA genes were designed using the sequence entries from GenBank (Table. 1) Database and synthesis by Integrated DNA Technologies (IDT). Human beta-actin mRNA was used as housekeeping gene, TaqMan Primers and probes specific for human beta-actin gene was synthesis by Sigma Aldrich. The probes were labeled with FAM 3′ end and the fluorophores 6FAM at 5′ end. The real-time quantitative PCR reaction for each sample was carried out in triplicate and each experiment was repeated twice. […] Analysis of gene expression data was carried out by ΔΔCT method of relative quantification, according to Kenneth, et al, (2001) (32). […]"}, "Apo B100 mRNA [8]": {"test_system": "Apo B100 mRNA", "assay": "Apo B100 mRNA expression in HepG2 cells, real-time PCR", "format": "cell-based, human", "conditions": "HepG2 cells (in vitro), compared to the control", "procedure": "(§1) For the determination of mRNA expression levels of LDLR, HMG-COAR, beta actin, Apo A-1, Apo E and Apo B100 by real time PCR, HepG2 cells were plated in 6-well plates at a density of 1.8×10^5 cells/well for 24 h. The cells were incubated with 10% HLPDS for 24 h with or without adding 2 μg/ml 25OH for another 24 h. The cells were treated with TQRF at two different doses, 80 and 50 μg/ml for 24 h, and with TQ at dose of 2 μg/ml Total RNA was isolated from HepG2 cells and rats liver tissues using RiboPure RNA Isolation Kit according to the manufacturer's instructions. […] Real-time quantitative PCR was performed using the Quantict Probe Real time PCR master mix according to the manufacturer's instructions. TaqMan Primers and probes specific for LDLR and HMG-COA genes were designed using the sequence entries from GenBank (Table. 1) Database and synthesis by Integrated DNA Technologies (IDT). Human beta-actin mRNA was used as housekeeping gene, TaqMan Primers and probes specific for human beta-actin gene was synthesis by Sigma Aldrich. The probes were labeled with FAM 3′ end and the fluorophores 6FAM at 5′ end. The real-time quantitative PCR reaction for each sample was carried out in triplicate and each experiment was repeated twice. […] Analysis of gene expression data was carried out by ΔΔCT method of relative quantification, according to Kenneth, et al, (2001) (32). […]"}, "Apo A-1 mRNA [9]": {"test_system": "Apo A-1 mRNA", "assay": "Apo A-1 mRNA expression in HepG2 cells, real-time PCR", "format": "cell-based, human", "conditions": "HepG2 cells (in vitro), compared to the control", "procedure": "as §1"}, "Apo E mRNA [10]": {"test_system": "Apo E mRNA", "assay": "Apo E mRNA expression in HepG2 cells, real-time PCR", "format": "cell-based, human", "conditions": "HepG2 cells (in vitro), compared to the control", "procedure": "as §1"}, "HMG-COAR mRNA [11]": {"test_system": "HMG-COAR mRNA", "assay": "HMG-COAR mRNA expression in HepG2 cells, real-time PCR", "format": "cell-based, human", "conditions": "HepG2 cells (in vitro), compared to the control", "procedure": "as §1"}, "hydroxyl radical": {"test_system": "hydroxyl radical", "assay": "Hydroxyl radical scavenging activity of rat plasma by ESR", "format": "in vivo", "conditions": "plasma of rats after 8 weeks of treatment, different doses"}, "Apo A-1 mRNA [12]": {"test_system": "Apo A-1 mRNA", "assay": "Apo A-1 mRNA expression in rat liver, real-time PCR", "conditions": "rat liver (in vivo), compared to the control"}},
  "note": "Marks after values point to notes of the source that are not given here.",
  "data": [
    {"smiles": "CC1=CC(=O)C(C(C)C)=CC1=O", "note": "[TQ, Thymoquinone]", "values": [
      {"measurement": "increase of LDLR mRNA level", "setting": "LDLR mRNA [1]; TQ 20 mg/kg body weight", "value": "two"},
      {"measurement": "increase of LDLR mRNA level", "setting": "LDLR mRNA [1]; TQ 100 mg/kg body weight", "value": "seven"},
      {"measurement": "Apo B100 mRNA expression", "setting": "Apo B100 mRNA [2]", "value": "down-regulated"},
      {"measurement": "increase of LDLR mRNA expression level", "setting": "LDLR mRNA [3]", "value": "two"},
      {"measurement": "TC levels in experimental rats", "setting": "[4]; TQ 1 group (20 mg/kg oral emulsion), after 4 weeks", "value": "1.49 ± 0.24 ^b mmol/l"},
      {"measurement": "TC levels in experimental rats", "setting": "[4]; TQ 1 group (20 mg/kg oral emulsion), after 8 weeks", "value": "1.48 ± 0.22 ^a, c mmol/l"},
      {"measurement": "TC levels in experimental rats", "setting": "[4]; TQ 1 group (20 mg/kg oral emulsion), baseline", "value": "0.85 ± 0.19", "unit": "mmol/L"},
      {"measurement": "TC levels in experimental rats", "setting": "[4]; TQ 2 group (50 mg/kg oral emulsion), after 4 weeks", "value": "1.47 ± 0.31 ^b mmol/l"},
      {"measurement": "TC levels in experimental rats", "setting": "[4]; TQ 2 group (50 mg/kg oral emulsion), after 8 weeks", "value": "1.01 ± 0.34 ^a mmol/l"},
      {"measurement": "TC levels in experimental rats", "setting": "[4]; TQ 2 group (50 mg/kg oral emulsion), baseline", "value": "0.97 ± 0.05", "unit": "mmol/L"},
      {"measurement": "TC levels in experimental rats", "setting": "[4]; TQ 3 group (dose 20 mg/kg, oral emulsion), after 4 weeks", "value": "1.41 ± 0.48 ^b mmol/l"},
      {"measurement": "TC levels in experimental rats", "setting": "[4]; TQ 3 group (dose 20 mg/kg, oral emulsion), after 8 weeks", "value": "0.94 ± 0.30 ^a mmol/l"},
      {"measurement": "TC levels in experimental rats", "setting": "[4]; TQ 3 group (dose 20 mg/kg, oral emulsion), baseline", "value": "0.87 ± 0.26", "unit": "mmol/L"},
      {"measurement": "plasma low density lipoprotein cholesterol (LDLC)", "setting": "[4]; rats, different doses for 8 weeks, compared to controlled group", "value": "significant decrease"},
      {"measurement": "toxicity (hepatic and kidney enzyme stability, organ integrity)", "setting": "[5]", "value": "non toxic"},
      {"measurement": "Apo E mRNA expression", "setting": "Apo E mRNA [6]", "value": "up-regulated"},
      {"measurement": "HMG-COAR mRNA expression", "setting": "HMG-COAR mRNA [7]", "value": "down-regulated"},
      {"measurement": "Apo B100 mRNA expression", "setting": "Apo B100 mRNA [8]", "value": "down-regulated"},
      {"measurement": "Apo A-I mRNA expression", "setting": "Apo A-1 mRNA [9]", "value": "up-regulated"},
      {"measurement": "Apo E mRNA expression", "setting": "Apo E mRNA [10]", "value": "up-regulated"},
      {"measurement": "HMG-COAR mRNA expression", "setting": "HMG-COAR mRNA [11]", "value": "down-regulated"},
      {"measurement": "hydroxyl radical scavenging activity of plasma (ESR)", "setting": "hydroxyl radical", "value": "able to directly scavenge .OH"},
      {"measurement": "Apo A-I mRNA expression", "setting": "Apo A-1 mRNA [12]", "value": "up-regulated"}
    ]}
  ]
}
